Results on 38 molecules are retold here after ChEMBL document CHEMBL5665440, “ASAP - In vitro liver microsomal stability” (2024).

A short description of this data set: Human liver microsomal stability of compound in microsomal protein, PBS buffer pH 7.4, NADPH, glucose-6-phosphate and glucose-6-phosphate dehydrogenase media. Aliquotes were taken at 5 time points and after stopping the reaction, supernatants were analyzed using HPLC coupled with a tandem mass spectrometer. The elimination constant, half-life, and intrinsic clearance are determined as results using linear regression analysis. The data set is classed as ADME, microsomes, Microsome. The settings on record: for half-life / microsomal CLint: liver microsomes; for Remaining / Remaining (without cofactor): microsomes.

By half-life is commonly meant the time in which the quantity being followed falls by half. Higher therefore signals slow loss. As usually defined, the microsomal CLint is a measure of how fast metabolising enzymes remove a compound, apart from limits set by blood flow. The low end stands for greater metabolic stability, the high end for faster metabolism.

A value given as a limit tells only on which side of the number the result lay.
Wherever Remaining (without cofactor) is given: time not given here.
Wherever Remaining is given: time not given here.

Regarding `O=C(Nc1cc(Cl)cc(C(=O)Nc2ccc3c(c2)CNC3)c1)OCc1ccccc1`, the half-life was 2.19 h, the microsomal CLint was found to be 12.7 µL/min/mg, the Remaining is 81.215% and the “Remaining (without cofactor)” value stood at 98.946%.
In the case of `NCc1cccc([C@@H]2C[C@H]2c2cc(Cl)cc(NC(=O)OCc3ccccc3)c2)c1`, the half-life worked out at 2.44 h, the microsomal CLint amounted to 11.4 µL/min/mg, the Remaining is recorded as 87.168% and the “Remaining (without cofactor)” value was 92.769%.
For `O=C(Nc1cc(Cl)cc(C(=O)Nc2cccc(C3CCNCC3)c2)c1)OCc1ccccc1`, the half-life is > 2.89 h, the microsomal CLint is < 10 µL/min/mg, the Remaining turned out to be 91.016% and the “Remaining (without cofactor)” value is reported as 98.201%.
In the case of `NCc1cccc(NC(=O)[C@@H](NC(=O)OCc2ccccc2)C2CCCCC2)c1`, the half-life came to 5.26 h, the microsomal CLint came to 5.29 µL/min/mg, the Remaining is listed as 90.368% and the “Remaining (without cofactor)” value stood at 108.836%.
On to `N#C[C@H](Nc1cccc(-c2nn[nH]n2)c1)c1cc(Cl)cc(NC(=O)OCc2ccccc2)c1`, for which the half-life worked out at 2.04 h, the microsomal CLint turned out to be 13.6 µL/min/mg, the Remaining worked out at 82.243% and the “Remaining (without cofactor)” value came to 110.789%.
Take `O=C(N[C@H]1[C@H]2CCCCC[C@H]2[C@H]1C(=O)Nc1cccc(C2CCNCC2)c1)OCc1ccccc1`: the half-life was 0.89 h, the microsomal CLint was found to be 31.3 µL/min/mg, the Remaining turned out to be 58.639% and the “Remaining (without cofactor)” value was found to be 103.638%.
On to `NCc1cccc(NC(=O)C[C@@H](NC(=O)OCc2ccccc2)c2ccc(OCc3ccccc3)cc2)c1`, for which the half-life was 1.64 h, the microsomal CLint was 17 µL/min/mg, the Remaining stood at 76.547% and the “Remaining (without cofactor)” value worked out at 105.768%.
Turning to `O=C(O)COc1cccc(NC(=O)c2cc(Cl)cc(NC(=O)OCc3ccccc3)c2)c1`, the half-life was > 2.89 h, the microsomal CLint is < 10 µL/min/mg, the Remaining is 98.934% and the “Remaining (without cofactor)” value is given as 109.497%.
Taken in the same sequence, the figures for `NCc1cccc(NC(=O)c2cc(Cl)cc(CN)c2)c1` were 1.33 h, 21 µL/min/mg, 124.297% and 104.813%.
For the molecule `O=C(O)c1cc(Cl)ccc1NS(=O)(=O)c1ccc(-c2ccccc2Cl)cc1`, the half-life was 0.0813 h, the microsomal CLint stood at 343 µL/min/mg, the Remaining was 0.295% and the “Remaining (without cofactor)” value stood at 109.106%.
Regarding `NCc1cccc(NC(=O)c2cccn3cc(CN4CCCC4)nc23)c1`, the half-life is > 2.89 h, the microsomal CLint was < 10 µL/min/mg, the Remaining was determined as 98.243% and the “Remaining (without cofactor)” value was 100.684%.
On to `CNC(=O)[C@H](Nc1cccc(-c2nn[nH]n2)c1)c1cc(Cl)cc2[nH]ncc12`, for which the half-life was > 2.89 h, the microsomal CLint was < 10 µL/min/mg, the Remaining is recorded as 97.01% and the “Remaining (without cofactor)” value stood at 105.868%.
As for `NCc1cccc(NC(=O)[C@@H](NC(=O)OCc2ccccc2)C(C2CCC2)C2CCC2)c1`, the half-life is 2.21 h, the microsomal CLint came out at 12.6 µL/min/mg, the Remaining is recorded as 77.895% and the “Remaining (without cofactor)” value is given as 94.537%.
In the case of `O=C(O)Cn1ncc2cc(-c3cc(Cl)cc(NC(=O)OCc4ccccc4)c3)ccc21`, the half-life is > 2.89 h, the microsomal CLint is < 10 µL/min/mg, the Remaining is listed as 101.103% and the “Remaining (without cofactor)” value is on record as 100.106%.
As to `CCOc1cccc(-c2ccc(S(=O)(=O)Nc3ccc(Cl)cc3C(=O)O)cc2)c1`, the half-life stood at 0.233 h, the microsomal CLint was found to be 119 µL/min/mg, the Remaining was 15.029% and the “Remaining (without cofactor)” value is 93.83%.
On to `NCCc1ccc(NC(=O)c2cc(Cl)cc(NC(=O)OCc3ccccc3)c2)cc1`, for which the half-life came out at 1.59 h, the microsomal CLint was 17.5 µL/min/mg, the Remaining is recorded as 76.258% and the “Remaining (without cofactor)” value is reported as 74.637%.
`NCc1cc(C(=O)O)cc([C@@H]2C[C@H]2c2cc(Cl)cc(NC(=O)OCc3ccccc3)c2)c1`: the half-life is > 2.89 h, the microsomal CLint was < 10 µL/min/mg, the Remaining stood at 89.704% and the “Remaining (without cofactor)” value was determined as 102.436%.
Taken in the same sequence, the figures for `O=C(Nc1cc(Cl)cc(C(=O)Nc2n[nH]c3c2CNC3)c1)OCc1ccccc1` were > 2.89 h, < 10 µL/min/mg, 100.832% and 95.38%.
Take `c1ccc2sc(C3CCN(Cc4c[nH]c5ccccc45)CC3)nc2c1`: the half-life came to 0.73 h, the microsomal CLint is 38.1 µL/min/mg, the Remaining is 53.75% and the “Remaining (without cofactor)” value was found to be 101.907%.
Regarding `CC(C)CNC(=O)c1cc(Cl)c(F)cc1NS(=O)(=O)c1ccc(Oc2ccccc2Cl)cc1`, the half-life was found to be 0.14 h, the intrinsic clearance (microsomal CLint) was 198 µL/min/mg, the Remaining amounted to 4% and the “Remaining (without cofactor)” value was 98%.
Turning to `Cc1cc(OCc2ccccc2)ccc1NS(=O)(=O)c1ccc(Cl)cc1C(=O)O`, the half-life amounted to 1.25 h, the microsomal CLint amounted to 22.3 µL/min/mg, the Remaining stood at 70.445% and the “Remaining (without cofactor)” value is reported as 101.396%.
Taken in the same sequence, the figures for `O=C(Nc1cc(Cl)cc(C(=O)Nc2cccc(-c3nnn[nH]3)c2)c1)OCc1ccccc1` were > 2.89 h, < 10 µL/min/mg, 88.987% and 100.499%.
On to `CNC(=O)[C@H](Nc1cc(Cl)cc(NC(=O)OCc2ccccc2)c1)c1cccc(-c2nn[nH]n2)c1`, for which the half-life was 1.31 h, the microsomal CLint came to 21.3 µL/min/mg, the Remaining is given as 70.065% and the “Remaining (without cofactor)” value is recorded as 102.307%.
Turning to `NCc1cccc(NC(=O)c2cc(Cl)cc(NC(=O)OCc3ccccc3)c2)c1`, the half-life is > 2.89 h, the microsomal CLint was < 10 µL/min/mg, the Remaining is on record as 93.647% and the “Remaining (without cofactor)” value is 102.839%.
Turning to `CCc1cc(C(=O)Nc2cccc(CN)c2)sc1-c1ccc(Cl)cc1`, the half-life was > 2.89 h, the microsomal CLint is < 10 µL/min/mg, the Remaining was 114.72% and the “Remaining (without cofactor)” value was found to be 98.952%.
For `O=C(NCC(F)(F)F)c1cc(Cl)c(F)cc1NS(=O)(=O)c1ccc(Oc2ccccc2Cl)cc1`, the half-life was found to be 0.4 h, the microsomal CLint amounted to 70 µL/min/mg, the Remaining is recorded as 33% and the “Remaining (without cofactor)” value came to 104%.
Regarding `CC[C@@H](Cc1nnn[nH]1)c1ccc(NC(=O)c2cc(Cl)cc(NC(=O)OCc3ccccc3)c2)cc1`, the half-life is 1.12 h, the microsomal CLint was 24.9 µL/min/mg, the Remaining came to 66.587% and the “Remaining (without cofactor)” value is on record as 100.68%.
Taken in the same sequence, the figures for `c1ccc2c(CN3CCC(c4c[nH]c5cccnc45)CC3)c[nH]c2c1` were 1.69 h, 16 µL/min/mg, 78.186% and 103.226%.
Taken in the same sequence, the figures for `NCc1cccc(NC(=O)CN(C(=O)OCc2ccccc2)c2ccc(OCc3ccccc3)cc2)c1` were 2.6 h, 11 µL/min/mg, 83% and 101%.
Take `O=C(O)c1cc(Cl)c(F)cc1S(=O)(=O)Nc1ccc(Oc2ccccc2Cl)cc1`: the half-life amounted to 0.413 h, the microsomal CLint worked out at 67.4 µL/min/mg, the Remaining was 33.369% and the “Remaining (without cofactor)” value is on record as 97.65%.
For `NCc1cccc(NC(=O)c2cc(OCc3ccccc3)ccc2CNC(=O)OCc2ccccc2)c1`, the half-life was found to be 1.31 h, the microsomal CLint came out at 21 µL/min/mg, the Remaining is on record as 69% and the “Remaining (without cofactor)” value is 103%.
For `Cc1cc(-c2ccc([C@@H](NC(=O)OCc3ccccc3)C(=O)Nc3cccc(CN)c3)cc2)cs1`, the half-life was 0.943 h, the microsomal CLint is 29.5 µL/min/mg, the Remaining came to 62.909% and the “Remaining (without cofactor)” value came out at 101.077%.
Taken in the same sequence, the figures for `C=CC[C@H](Nc1cccc(-c2nn[nH]n2)c1)c1cc(Cl)cc(NC(=O)OCc2ccccc2)c1` were 0.425 h, 65.5 µL/min/mg, 34.146% and 93.066%.
With `N#C[C@H](Nc1cccc(C(=O)O)c1)c1cc(Cl)cc2[nH]ncc12`, the half-life was 2.33 h, the microsomal CLint amounted to 12 µL/min/mg, the Remaining worked out at 81.554% and the “Remaining (without cofactor)” value is listed as 89.628%.
Taken in the same sequence, the figures for `Cc1ccc(NC(=O)c2cc(Cl)cc(NC(=O)OCc3ccccc3)c2)cc1CN` were > 2.89 h, < 10 µL/min/mg, 88.403% and 97.11%.
In the case of `CC(C)c1nc2c(C(=O)Nc3cccc(CN)c3)cccc2[nH]1`, the half-life was > 2.89 h, the microsomal CLint was < 10 µL/min/mg, the Remaining turned out to be 101.28% and the “Remaining (without cofactor)” value is recorded as 99.543%.
Take `O=C(O)c1cc(Cl)ccc1S(=O)(=O)NC1CCN(c2nc(C3CC3)cc(C(F)(F)F)n2)CC1`: the half-life was 1.06 h, the microsomal CLint was 26.3 µL/min/mg, the Remaining is 62.456% and the “Remaining (without cofactor)” value was 103.505%.
Take `O=C(Nc1cc(Cl)cc(C(=O)Nc2cccc(-n3nn[nH]c3=O)c2)c1)OCc1ccccc1`: the half-life amounted to 2.48 h, the microsomal CLint stood at 11.2 µL/min/mg, the Remaining stood at 81.771% and the “Remaining (without cofactor)” value is listed as 105.363%.
